Experimental findings from publication PMC10756276, “Highly specific σ2R/TMEM97 ligand FEM-1689 alleviates neuropathic pain and inhibits the integrated stress response” (Proceedings of the National Academy of Sciences of the …, 2023) are described below.

In one assay the test system is p-eIF2α in HEK293T cells. In words: p-eIF2α ICC and spectrophotometry in HEK293T cells. Format: cell-based, human. Here is the method: The ICC protocol was based on a previously published protocol ([76]). […] Cells were blocked with 10% normal goat serum (NGS) in PBS-triton X (0.1%). […] Antibodies were incubated at 4 °C overnight. […] It was washed with PBS twice. […] Images were analyzed using Olympus CellSens. […] Number of cells analyzed are detailed in SI Appendix, Tables S3 and S4.
Human embryonic kidney (HEK) 293 T cells (ATCC # CRL-3216) were generously donated by the Campbell Lab (UT Dallas). Cells were grown at 37 °C with 5% CO2 in complete medium (10% FBS, 1% Pen-Strep in DMEM/F12 + GlutaMax (Gibco #10565-018) in T-75 flasks (Greiner Bio-One #658175). In a 96-well plate (ThermoFisher #165305), cells were plated at a density of 20,000 cells per well and grown to roughly 65% confluency before being treated with FEM-1689. For 2-h FEM-1689 treatment, HEK cells were plated at a density of 32,000 cells per well and treated at roughly 85% confluency. Three to five replicates were made per condition/dose (1/2 log steps ranging from 0.1 to 1,000 nM). ICC was performed to label p-eIF2α and DAPI. Immunofluorescence of HEK cells was quantified using the Synergy HTX Multimode Reader. For further details regarding the culturing of HEK cells, see SI Appendix. […]
(§1) Huma n e mbryon ic kidn ey (HEK) 293T ce lls (ATCC # C RL- 321 6) were ge nerously dona ted by th e Ca mpb ell Lab (UT Dallas). Cell stock s were previously fr ozen at 1 million cells/ml in 90% fetal bov ine s erum (F BS, ThermoFisher #SH300880340) and 10% DMSO. Cells were grown in complete medium (10% FBS, 1% Pen- Strep in DMEM/F12 + GlutaMax (Gibco #10565- 018) in T-75 flasks (Greiner Bio- One #658175). Cells were maintained at 37 °C with 5% CO2 and passaged twice before being plated onto either 96-well or 6-well plates for ICC/spectrophotometry and western blotting, respectively. Cells were counted using the TC20 automated cell counter (Bio- R ad #1450102) using a 1:1 dilution of trypan blue (Gibco #15250061).
In a 9 6-well p lat e (Therm oFisher #16 530 5), cells were p late d at a de nsity of 20,0 00 cells per w ell a nd gro wn to rou gh ly 65 % conf lu ency before be in g tre ate d w ith F EM- 16 89. For 2 h our F EM- 1689 trea tme nt, HEK ce lls were plated at a density of 32,000 cells per well and treated at roughly 85% confluency. […] Immunofluorescence of HEK cells was quantif ied using the Synergy HTX Multimode Reader. […] Wells were topped with 100 µL of 1X PBS prior to being read. DAPI and p -eIF2α reads were performed at bottom with a gain of 3 5 a nd 45, r espective ly. […]
fluorescence units (RFUs) of the negative controls were subtracted from each well. P-eIF2α fluorescence was normalized to DAPI in order to control for the number of cells present in the well and then to the fluoresce nce of th e veh icle t reatme nt as a p ercenta ge. […]

The subject of assay [1] is p-eIF2α, eIF2A, p-PERK, BiP in HEK293T cells. In words: Western blot of ISR-related proteins in HEK293T cells. Format: cell-based, human. Particulars: HEK293T, 0.1, 1, 10, 100 nM, 16 h (overnight). Here is the method: as §1
Concentr ations were transformed to […] values and data w as fit to a non- linear regression curve (inhibitor vs response, varia ble slop e , four p aram eters) constrain ed at top at 1 00, bott om at p -eIF2α levels at 300nM, […]
HEK cells were plated at 60,000 cells per well onto six-well plates (ThermoFisher # 351146) for 24 hours before being treated w ith F EM- 1689 overnight. Protein extractions and western blotting w as perfor med as previous ly published (10) . In brief, media fr om the cells was removed and cells were washed once with 1X
PBS. Cells were lysed in the well with radioimmunoprecipitation assay (RIPA) buffer consisting of 25 mM Tris, 150 mM NaCl, 0.1% SDS, 0.5% Na deoxycholate, 1% Triton X-100 with pr otease and phosphatas e inhibitor cocktails (Sigma Aldrich P8340, P5726, P0044 – 1:100 each). Cells were centr ifuged at 4 °C at 14,000 rpm for 10 min. The supernatant was used for downstream analysis. Protein was quantif ied using the Pierce BC A Protein Assay kit (Thermo Scientific, #23225) according to the manufacturer’s instructions.
Prote in samp les were de na tured usin g 4X L aem mli Sa mple buff er (BioR ad #1 610 747) and h eat ed at 95 °C for 5 min. 20 µg of protein samples were loaded onto 4- 20% Stain- Free Criterion TGX gels (BioRad #5678094). Gels were run in Tris/Glycine/SDS running buffer ( BioRad #1610772) at 120V for roughly 1.5 hours. St ain- Free gels wer e activated for 5 min pr ior to t he transf er step. Protein was transferred for 10 min onto low fluorescence poly vinylidene difluor ide (PVDF ) using a TransBlot Transfer kit (BioRad #1704275) and a Transblot Turbo transfer system (BioRad). Onc e transferred, total protein was imaged immediately using a ChemiDoc MP system (BioRad). Blots were allowed to dry for 5 min and were blocked with 5% non- fat milk in Tr is buffered saline (T BS)-Tween 20 (0.05%). Antibodies were diluted in 1% non- fat m ilk in TBS- Twe en 20. Primary ant ibo dies used in this st udy w ere: p- eIF 2α (1:1000, C ell Signaling #3398), t-eIF2α […]

Structures are written as SMILES. Entries after “also recorded” stand apart in the source; their conditions may differ.

A word on the IC50: it is the concentration at which inhibition is half-maximal. With `OCCCN1CC[C@@H]2C[C@H]1c1cc(-c3ccc(C(F)(F)F)cc3)ccc12` [FEM-1689], in the assay on p-eIF2α in HEK293T cells (2 h treatment), the IC50 turned out to be 5.89 nM. In the assay with p-eIF2α in HEK293T cells (16 h treatment), the half-maximal inhibitory concentration (IC50) turned out to be 0.74 nM. In addition, the half-maximal inhibitory concentration (IC50) in the assay with p-eIF2α in HEK293T cells (Homo sapiens, HEK-293T, 2 h, 2 h treatment) is 5.9 nM. Further, in the assay with p-eIF2α in HEK293T cells (Homo sapiens, HEK-293T, 16 h, 16 h treatment), the IC50 worked out at 0.7 nM. For the same molecule, in assay [1], the “BiP level (western blot)” value is listed as “remained stable; also recorded: remained unchanged”, the “eIF2A level (western blot)” value is listed as “concentration-dependent reduction; also recorded: significant reduction”, the “p-PERK level (western blot)” value is “concentration-dependent reduction; also recorded: significant reduction” and the “p-eIF2α level (western blot)” value is listed as “concentration-dependent reduction; also recorded: significant reduction”.
